{"source": "paper PMC9738107", "about": "“Targeting of the ELR+CXCL/CXCR1/2 Pathway Is a Relevant Strategy for the Treatment of Paediatric Medulloblastomas” (Cells, 2022)", "key": {"[1]": {"experiment": "Quantification of C29 in mouse cerebellum postmortem (LC/MS)", "assay_type": "in vivo", "conditions": "for Amount of C29 in cerebellum: individual animals", "experimental": "A 5 mM stock solution of C29 (1.743 mg/mL) in DMSO was prepared. This solution was diluted with a mixture of acetonitrile/water, 8/4, v/v to produce the solution with the highest concentration: 1250 ng/1.2 mL. Successive dilutions with acetonitrile/water, 8/4, v/v provided 5 more standards with concentrations between 50 ng/mL and 1250 ng/mL.\nSamples of cerebellum were prepared by dissolving minced biological material in 1.2 mL acetonitrile/water, 8/4, v/v. After sonication for 5 min, the vials were centrifuged (15,000 rpm) and the supernatant was filtered through a […] PTFE microfilter.\nAll standards and samples were analysed using a LC/MS system consisting of an Agilent 1100 HPLC chain with a degasser, a binary pump, a column oven, an automatic injector, and a UV detector. The column is a Phenomenex Gemini analytical column 3 µm C18 110 A 150 mm × 3 mm × 3 µm, at 25 °C. The solvents are water with 0.1% formic acid (solvent A) and acetonitrile with 0.1% formic acid (solvent B). The gradient is as follows: 10% B to 100% B over 8 min, 100% B over 6 min, 100% B to 10% B over 1 min, and 10% B over 3 min (total time: 18 min). The UV detection is carried out over the range of 190–400 nm (in 2 nm steps). The mass spectrometer is an LCQ Advantage (ThermoScientific, Waltham, MA, USA) of the “ion trap 3D” type, equipped with an electrospray source.\nMass spectrometric detection was carried out in negative mode and in SRM (single reaction monitoring) mode according to the monitoring of the 380.9–194.2 transition. The isolation span of the ion was 2 mass units (193.2–195.2). The applied normalized collision energy was 30%. Each standard and sample were injected in duplicate. Each duplicate was separated by a blank and the concentration of the standards ranged from […]. […] Signals were acquired based on their area and integrated using the ICIS algorithm according to the following parameters: smoothing points: 15; baseline window: 75 scans; area noise factor: 5; peak noise factor: 10. Calibration is external, and the regression was linear. The origin was included in the calibration.\nA critical and limiting feature of a drug targeting MB is its ability to cross the blood–brain barrier (BBB) and reach the tumour in the brain. […] However, after 5 days of treatment, 24 h after the last administration, no more C29 was found in the cerebellum of the mice."}, "DR1 and DR2 cells": {"tested_on": "DR1 and DR2 cells", "experiment": "CXCL8-dependent migration in Boyden chamber", "assay_type": "cell-based, human", "conditions": "DR1 and DR2, 1 µM, 200 ng/mL CXCL8", "experimental": "Figure 8 C29 is efficient on radioresistant MB cell lines. (A) Cell death after 48 h of treatment with control (DMSO, CT) or C29 1, 2.5, or 5 µM on radiation-resistant cells (RR) and normal cells (N), n = 3. Statistics were performed using the one-way method ANOVA. * p < 0.05, ** p < 0.01, *** p < 0.001. For this figure, DR1 = D1, DR2 = D2, HR1 = H1, HR2 = H2, and C8D1A = C8. (B) Proliferation of DR1/DR2 (A) and HR1/HR2 (B) radio-resistant cells after 1 µM C29 treatment or control (DMSO), n = 3. (C) Clonogenic assay on DR1, DR2 (n = 3) and HR1, HR2 (n = 3) cells after treatment with control (DMSO) or C29 (1 µM or 2.5 µM). […] Results are expressed as percentage of control (n = 3). […]\n1500 Daoy, ONS ‐76, HD ‐MB03 or D341 Med cells were sown in triplicate in plates with six wells and the cells were counted daily for 8 days using a Coulter counter (Ville‐ pinte). The relative number of cells (compared to day 1) was determined daily. […]\nY = Y0 * exp(k * X) (Y= Cell number at day X; Y0= Cell number at day 0 (graphically calculated); X= Day following cell plating (cells plated at X0=0); k= Exponential growth constant rate. Doubling times were compared.\n150 Daoy/DR1/DR2/ ONS ‐ 76 and 300 HD ‐ MB03/HR1/HR2 cells were seeded in trip‐ licate in 6‐well plates in the presence or absence of treatment (1 or 2∙5μM MCK140 or DMSO as control). […] The number of clones was quantified using ImageJ software. […]"}}, "note": "Values joined by “and” are separate entries in the source; they are usually repeats but may differ in a detail not shown here. Equal entries are not always repeated."}
{"smiles": "O=C(Nc1cccc(Cl)c1)Nc1nc2ccc([N+](=O)[O-])cc2s1", "note": "[C29, 1-(3-chlorophenyl)-3-(6-nitrobenzo[d]thiazol-2-yl) urea]", "values": [{"measurement": "Accumulation in cerebellum upon repeated administration", "setting": "[1]; 5 days of treatment, 24 h after the last administration", "result": "does not accumulate"}, {"measurement": "Amount of C29 in cerebellum", "setting": "[1]; gavage 100 mg/kg daily, chronic (5 days), 24 h after last treatment", "result": 0, "unit": "ng C29/mg cerebellum"}, {"measurement": "Amount of C29 in cerebellum", "setting": "[1]; gavage 100 mg/kg, acute (3 h), 100 mg/kg", "result": "0 ng C29/mg cerebellum and 5.394 ng C29/mg cerebellum"}, {"measurement": "Amount of C29 in cerebellum", "setting": "[1]; gavage 200 mg/kg daily, chronic (5 days), 24 h after last treatment", "result": 0, "unit": "ng C29/mg cerebellum"}, {"measurement": "Amount of C29 in cerebellum", "setting": "[1]; gavage 200 mg/kg, acute (3 h), 200 mg/kg", "result": "13.1 ng C29/mg cerebellum and 9.3 ng C29/mg cerebellum and 7.4 ng C29/mg cerebellum and 4.7 ng C29/mg cerebellum and 6.4 ng C29/mg cerebellum"}, {"measurement": "Blood–brain barrier crossing", "setting": "[1]; oral administration", "result": "can cross the blood–brain barrier"}, {"measurement": "CXCL8-dependent migration", "setting": "DR1 and DR2 cells", "result": "significantly inhibited"}]}
